{"source": "patent US20200164026A1", "about": "“Intranasal Delivery of Cell Permeant Therapeutics” (The Trustees of Columbia University in the City of New York, priority 2010, published 2020)", "key": {"rats subjected to tMCAo": {"test_system": "rats subjected to tMCAo", "experiment": "Intranasal Pen1-XBIR3 prior to tMCAo in rats; immunohistochemistry counts of neurons and processes in the penumbra", "type": "in vivo, rat", "procedure": "Brains were analyzed for expression of activated caspase-6, NF-L, MAP-2, and NeuN at 12 hpr and 24 hpr. […] Therefore, caspase-9 inhibition using this delivery technique reduced caspase-6 activity. […] (Coleman, M., Nat Rev Neurosci 6 (11), 889-898 (2005)). […] Unlike axon density, dendrite levels are unaffected at 12 and 24 hpr (FIG. 4D), which can indicate a slower time-course for dendritic degeneration or a different mechanism of degeneration.\nMouse & Rat Stroke Models. Caspase-6 null (C6^−/−) mice (Jackson Laboratories)^48,49 on C57/B16 background were bred with wild-type C57/B16 mice to generate C6^+/− heterozygotes, hets were bred to generate C6^−/− and wild-type littermates for studies. 2-3 month old male C6^−/− and wild-type littermate mice (23-30 g) as well as adult Wistar male rats 250-300 g (Taconic Laboratories) were subjected to transient middle cerebral artery occlusion (tMCAo) as previously published. (Connolly, et al., Neurosurgery 38 (3), 523-531; discussion 532 (1996); Komotar, et al., Nat Protoc 2 (10), 2345-2347 (2007)). Brains were harvested and processed for western blotting or immunohistochemistry as described below. For mouse neurofunctional analysis, a 28 point neurological functional exam was performed as previously described. (Clark, et al., Neurol Res 19 (6), 641-648 (1997)). Additionally, single mice were placed in a fresh cage at each time point (Pre-stroke, 24 hr reperfusion, 7 days reperfusion) short videos (3 min at each time point) were recorded of each mouse's representative spontaneous activity to illustrate motor deficits in the mouse stroke model.\nIntranasal Delivery of Pen1-XBIR3. While under isofluorane anesthesia and lying on their backs, Pen1-XBIR3 (36.8 μM) was delivered to rats by administering 6 μl drops to alternating nares every two minutes for 20 minutes (60 μl total delivered). (Thorne, et al., Neuroscience 127 (2), 481-496 (2004)). Intranasal treatment was done prior to induction of stroke. Saline was used as a negative control. Brains were harvested for immunohistochemistry or western blotting.\nImmunohistochemistry (IHC), Cell Process Quantification, and Statistical Analysis. Rats and mice were euthanized, perfused with heparin followed by fixation with 4% paraform-aldehyde. Sections were blocked for 1 hr with 10% normal goat serum/1% BSA, incubated with primary antibody overnight at 4° C., washed with PBS-Triton-X100 (0.1%), incubated with the species appropriate Alexa Fluor-conjugated secondary antibody (Invitrogen) for 2 hr at RT. Slides were also stained with Hoechst 33342 for 15 min at RT (1 μg/ml, Invitrogen) or with NeuroTrace fluorescent Nissl stain (1:300, Invitrogen) for 30 min to stain for nuclei. Human samples were additionally treated with Sudan Black (1% in 70% EtOH) for 5 min at RT and washed with 3 changes of PBS (3 min each). For detection of fluorescent staining, sections were imaged with an upright Nikon fluorescent microscope using a SPOT digital camera and with a Perkin-Elmer Spinning Disc Confocal Imaging System. Quantification of neurons and axons was accomplished using the Cell Counter plug-in for ImageJ (NIH). For quantification in the rat brain, 20x magnification images were acquired from the dorsal motor cortex and the […] somatosensory cortex forelimb region; both regions are contained are within the infarct penumbra (FIG. 1A). Single blind counts of processes or neurons were made in both regions of interest and then pooled for each individual animal. Three animals were used per cohort. For mouse brains, 20× magnification images were taken in the S1 somato-sensory cortex forelimb region and similar counts were made as described below. Counts were made for NF-L/MAP-2 positive processes and NeuN positive cell bodies. Comparisons between groups used the student's t test, p-value: 0.05."}, "[1]": {"test_system": "hippocampal neuronal cultures", "experiment": "Neuronal survival assay, 4-hydroxynonenal (HNE) mediated death", "type": "cell-based, rat", "settings": "HNE 3 μM, Pen1-XBIR3 80 nM, 1 day", "description": "(Davidson, et al., J Neurosci 24 (45), 10040-10046 (2004)). Upon entry into the cell the disulfide linkage is broken by the reducing environment of the cytoplasm, releasing the peptide cargo and allowing it to act at its target. Functional efficacy of this construct was confirmed using hippocampal neuronal cultures that were subjected to 4-hydroxynonenal (HNE) mediated death, a caspase-9 dependent death. (Rabacchi, et al., Neurobiol Aging 25 (8), 1057-1066 (2004)). […] To ensure that a Pen1-peptide could be delivered to the brain, Pen1 was linked to a FITC-labeled control peptide and delivered to the striatum using convection enhanced delivery (CED). Brains were harvested 24 hr after delivery, sectioned, and imaged. […] Pent-XBIR3 was delivered to the striatum 1 hr prior to tMCAo using ICC. Animals were harvested at 24 hpr and immunostained for caspase-9 and c1-C6. […] Thus, caspase-9 activity was necessary for activation of caspase-6 in neuron soma and processes following a transient ischemic event in rats.\nRat Hippocampal cultures. […]\nNeuronal survival assay. […] After 1 day of treatment cells number was quantified as previously described. […] Briefly, the cells were lysed in counting buffer and intact nuclei were counted using a hemocytometer. […]"}}, "data": [{"substance": "Pen1-XBIR3: BIR3 domain from XIAP, a specific caspase-9 inhibitor, disulfide-linked to Penetratin1 cell transduction peptide (SEQ ID NO: 10)", "values": [{"measurement": "MAP-2 positive processes (dendrites)", "setting": "rats subjected to tMCAo; 12 hpr, n=3", "value": "162.0±19.22"}, {"measurement": "NF-L positive axons", "setting": "rats subjected to tMCAo; 12 hpr, n=3", "value": "179.7±14.89"}, {"measurement": "NeuN positive cells", "setting": "rats subjected to tMCAo; 12 hpr, n=3", "value": "477.3±28.95"}, {"measurement": "MAP-2 positive processes (dendrites)", "setting": "rats subjected to tMCAo; 24 hpr, n=3", "value": "138.3±6.766"}, {"measurement": "NeuN positive cells", "setting": "rats subjected to tMCAo; 24 hpr, n=3", "value": "453.7±25.44"}, {"measurement": "NeuN positive cells", "setting": "rats subjected to tMCAo; 24 hpr, n=3, listed as Pent-XBIR3", "value": "significant protection against neuron loss"}, {"measurement": "neuronal death / survival", "setting": "[1]", "value": "abrogated death"}]}]}
